Experimental data taken from US11021545B2, “Multimodal cancer therapy comprising chimeric viral/nonviral nanoparticles and anticancer agents” (The Regents of the University of California, priority 2018, dated 2021).

Tested on: BCR-ABL+ FL 5.12 p190 cells
Assay: cells
Conditions: Mus musculus, FL5.12, read-out: IC50 of dasatinib without ChNPs
Procedure: Viability was tested three days after delivery. […] After 24 h, PBS, BIM AAV alone, MCL-1 siRNA alone, mixture of BIM AAV and siRNA, and various ChNPs (Null/Scr, Null/MCL-1, BIM/Scr, BIM/MCL-1 ChNPs) are added to the cells at different BIM AAV and MCL-1 siRNA concentrations. To measure cell viability, the cells maintained with fresh media everyday are pelleted by centrifugation (2000 rpm, 5 min, 4° C.) and resuspended in fresh media. The cells in 90 μL medium then are transferred into a 96-well plate where MTT (5 mg/mL in 10 μL PBS) is subsequently added. After 4 h of incubation at 37° C., the well plate is centrifuged at 2000 rpm and 4° C. for 5 min, and the media is replaced by 100 μL DMSO per well. The relative cell viability is quantified by comparing absorptions at 570 nm using a microplate reader (Synergy H1, Biotek), based on the absorption in the wells containing nontreated cells.

## Cc1nc(Nc2ncc(C(=O)Nc3c(C)cccc3Cl)s2)cc(N2CCN(CCO)CC2)n1 [dasatinib]
  IC50: 1 nM
